Data on 26 molecules can be found in patent US11299467B2 (Antabio SAS, priority 2017, dated 2022).

Structures are written as SMILES. Read-outs that look alike come from different tables or passages of the source.

What all share (assay type): biochemical
For one assay, the target named is NDM-1 (Klebsiella pneumoniae, UniProt C7C422). Nature of the assay: In vitro enzyme inhibition assay, purified NDM-1 (imipenem hydrolysis, UV 299 nm). The protocol:
(§1) Enzyme inhibition assays were performed using purified MBL enzymes (NDM-1; VIM-1; VIM-2; IMP-1) in 10 mM HEPES buffer pH 7.5 in 96-well microtiter plates. Imipenem (300 μM) was used as substrate and its hydrolysis was followed at UV 299 nm during 10 mn every 30 seconds using a Perkin Elmer Envision UV fluorescence plate reader.
(§2) Mean Ki values from multiple experiments are presented below.
(§3) Studies were undertaken to compare the compounds of the invention with structurally similar compounds (“Comp. x”). Experiments were conducted as described above.

The target of the next assay is VIM-1 (Pseudomonas aeruginosa, UniProt A0A0F7KYQ8). Nature of the assay: In vitro enzyme inhibition assay, purified VIM-1 (imipenem hydrolysis, UV 299 nm). The protocol: as §1, §2, §3
The target of the next assay is IMP-1 (Serratia marcescens, UniProt P52699). Nature of the assay: In vitro enzyme inhibition assay, purified IMP-1 (imipenem hydrolysis, UV 299 nm). How it is done: as §1, §2, §3
The target in another assay is VIM-2 (Escherichia coli, UniProt Q5U7L7). Nature of the assay: In vitro enzyme inhibition assay, purified VIM-2 (imipenem hydrolysis, UV 299 nm). How it is done: as §1, §2, §3
Setting [1] is: comparative study bands, read-out: Ki NDM-1 (comparative study).
The mark [2] stands for this setting: comparative study bands, read-out: Ki VIM-1 (comparative study).
[3] abbreviates: comparative study bands, read-out: Ki IMP-1 (comparative study).
[4] abbreviates: comparative study bands, read-out: Ki VIM-2 (comparative study).
Setting [5] is: mean Ki from multiple experiments, imipenem 300 μM, Cheng-Prusoff from IC50, read-out: Ki NDM-1.
The mark [6] stands for this setting: mean Ki from multiple experiments, imipenem 300 μM, Cheng-Prusoff from IC50, read-out: Ki VIM-1.
Where [7] appears, read: mean Ki from multiple experiments, imipenem 300 μM, Cheng-Prusoff from IC50, read-out: Ki IMP-1.
The mark [8] stands for this setting: mean Ki from multiple experiments, imipenem 300 μM, Cheng-Prusoff from IC50, read-out: Ki VIM-2.

Chain of NDM-1 (C7C422 29-270, looked up): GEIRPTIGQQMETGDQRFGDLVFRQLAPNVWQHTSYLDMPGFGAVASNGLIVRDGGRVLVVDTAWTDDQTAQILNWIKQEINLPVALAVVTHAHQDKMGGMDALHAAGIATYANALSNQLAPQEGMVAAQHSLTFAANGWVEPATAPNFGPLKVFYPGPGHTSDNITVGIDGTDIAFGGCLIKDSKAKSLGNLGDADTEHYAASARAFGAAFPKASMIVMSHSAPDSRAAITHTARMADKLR
Chain of IMP-1 (P52699 19-246, looked up, species assumed): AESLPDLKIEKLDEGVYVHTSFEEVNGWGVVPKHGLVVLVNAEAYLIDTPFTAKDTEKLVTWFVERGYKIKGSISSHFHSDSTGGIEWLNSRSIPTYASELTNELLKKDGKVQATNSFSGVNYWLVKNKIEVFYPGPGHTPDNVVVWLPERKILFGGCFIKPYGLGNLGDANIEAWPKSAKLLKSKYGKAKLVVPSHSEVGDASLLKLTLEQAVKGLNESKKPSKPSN

As usually defined, the Ki is the dissociation constant of the complex between target and ligand, obtained from inhibition or displacement. Regarding `NCC(=O)Nc1ncc(S(=O)(=O)Nc2scnc2C(=O)O)cc1F` [Comp. C, reference compound], the Ki on NDM-1 (setting [1]) lay within 100 to 300 nM; on VIM-1 (setting [2]), 500 to 1000 nM; at IMP-1 (setting [3]), 600 to 5000 nM; on VIM-2 (setting [4]), 100 to 150 nM.
The corresponding values for `N#Cc1cc(S(=O)(=O)Nc2scnc2C(=O)O)ccc1NC(=O)CN` [Comp. D, reference compound] are 30 to 100 nM, 500 to 1000 nM, 150 to 600 nM and 20 to 50 nM.
`N#Cc1cc(S(=O)(=O)Nc2scnc2C(=O)O)ccc1NC(=O)CN` [Comp. F, reference compound]: on VIM-1 (setting [2]), the Ki was in the range of 150 to 300 nM.
Regarding `NCC(=O)Nc1ccc(S(=O)(=O)Nc2scnc2C(=O)O)cc1OC(F)(F)F` [Comp. G, reference compound], the Ki at NDM-1 (setting [1]) fell in the range of 30 to 100 nM; on VIM-1 (setting [2]), 300 to 500 nM; on IMP-1 (setting [3]), 150 to 600 nM; at VIM-2 (setting [4]), 20 to 50 nM.
In the case of `NCC(=O)Nc1ccc(S(=O)(=O)Nc2scnc2C(=O)O)cc1` [Comp. H, reference compound], the Ki lay within 100 to 300 nM on NDM-1 (setting [1]), 500 to 1000 nM at VIM-1 (setting [2]), 5000 to 10000 nM on IMP-1 (setting [3]) and 20 to 50 nM at VIM-2 (setting [4]).
As for `NNC(=O)Nc1ccc(S(=O)(=O)Nc2scnc2C(=O)O)cc1F` [Comp. I, reference compound], the Ki at NDM-1 (setting [1]) lay within 100 to 300 nM; at VIM-1 (setting [2]), 500 to 1000 nM; at IMP-1 (setting [3]) it was 600 to 5000 nM.
Regarding `N=C(N)NCC(=O)Nc1ncc(S(=O)(=O)Nc2scnc2C(=O)O)cc1F` [Example 3, 5-[[5-fluoro-6-[(2-guanidinoacetyl)amino]-3-pyridyl]sulfonylamino]thiazole-4-carboxylic acid], the Ki lay in the range of 100 to 300 nM at NDM-1 (setting [1]); 50 to 200 nM at NDM-1 (setting [5]); 300 to 500 nM at VIM-1 (setting [2]); 200 to 500 nM at VIM-1 (setting [6]); 600 to 5000 nM at IMP-1 (setting [3]); 1000 to 10000 nM at IMP-1 (setting [7]). Further, the Ki on VIM-2 (setting [4]) and at VIM-2 (setting [8]) was 20 to 50 nM throughout.
`N=C(N)CC(=O)Nc1ccc(S(=O)(=O)Nc2scnc2C(=O)O)cc1F` [Example 4, 5-[[4-[(3-amino-3-imino-propanoyl)amino]-3-fluoro-phenyl]sulfonylamino]thiazole-4-carboxylic acid]: the Ki is below 50 nM at NDM-1 (setting [5]), 200 to 500 nM at VIM-1 (setting [6]), 1000 to 10000 nM on IMP-1 (setting [7]) and 20 to 50 nM at VIM-2 (setting [8]).
Regarding `N#Cc1cc(S(=O)(=O)Nc2scnc2C(=O)O)ccc1NC(=O)CNC(=N)N` [Example 5, 5-[[3-cyano-4-[(2-guanidinoacetyl)amino]phenyl]sulfonylamino]thiazole-4-carboxylic acid], the Ki at NDM-1 (setting [1]) was 30 to 100 nM; on NDM-1 (setting [5]), 50 to 200 nM; at VIM-1 (setting [2]) it was 150 to 300 nM; at VIM-1 (setting [6]) it was below 200 nM; on IMP-1 (setting [3]), 150 to 600 nM; on IMP-1 (setting [7]), below 500 nM. Besides, the Ki at VIM-2 (setting [4]) and at VIM-2 (setting [8]) was 20 to 50 nM each time.
In the case of `N=C(N)NCC(=O)Nc1ccc(S(=O)(=O)Nc2scnc2C(=O)O)cc1C(N)=O` [Example 6, 5-[[3-carbamoyl-4-[(2-guanidinoacetyl)amino]phenyl]sulfonylamino]thiazole-4-carboxylic acid], the Ki lay within 200 to 2000 nM on NDM-1 (setting [5]), 200 to 500 nM at VIM-1 (setting [6]) and 1000 to 10000 nM at IMP-1 (setting [7]).
Regarding `CN(CC(=O)Nc1ccc(S(=O)(=O)Nc2scnc2C(=O)O)cc1F)C(=N)N` [Example 8, 5-[[4-[[2-[carbamimidoyl(methyl)amino]acetyl]amino]-3-fluoro-phenyl]sulfonylamino]thiazole-4-carboxylic acid], the values for the Ki on NDM-1 (setting [5]), at VIM-1 (setting [6]) and at IMP-1 (setting [7]) were 50 to 200 nM, 200 to 500 nM and 1000 to 10000 nM, respectively.
Take `N=C(N)NCC(=O)Nc1cc(F)c(S(=O)(=O)Nc2scnc2C(=O)O)cc1F` [Example 9, 5-[[2,5-difluoro-4-[(2-guanidinoacetyl)amino]phenyl]sulfonylamino]thiazole-4-carboxylic acid]: the Ki on NDM-1 (setting [5]) is 50 to 200 nM; at VIM-1 (setting [6]) it was 200 to 500 nM; at IMP-1 (setting [7]), 1000 to 10000 nM; on VIM-2 (setting [8]) it was below 20 nM.
Regarding `C[C@@H](NC(=N)N)C(=O)Nc1ccc(S(=O)(=O)Nc2scnc2C(=O)O)cc1` [Example 11, 5-[[4-[[(2R)-2-guanidinopropanoyl]amino]phenyl]sulfonylamino]thiazole-4-carboxylic acid], the results for the Ki at NDM-1 (setting [5]), on VIM-1 (setting [6]) and at IMP-1 (setting [7]) were 200 to 2000 nM, 200 to 500 nM and 1000 to 10000 nM, respectively.
The corresponding values for `CN(C)C(=N)CC(=O)Nc1ccc(S(=O)(=O)Nc2scnc2C(=O)O)cc1F` [Example 12, 5-[[4-[[3-(dimethylamino)-3-imino-propanyl]amino]-3-fluoro-phenyl]sulfonylamino]thiazole-4-carboxylic acid] are 50 to 200 nM, 200 to 500 nM and 500 to 1000 nM.
Consider `N=C(N)NCC(=O)Nc1ccc(S(=O)(=O)Nc2scnc2C(=O)O)nn1` [Example 14, 5-[[6-[(2-guanidinoacetyl)amino]pyridazin-3-yl]sulfonylamino]thiazole-4-carboxylic acid], for which the Ki on NDM-1 (setting [5]) is 200 to 2000 nM; at VIM-1 (setting [6]), 200 to 500 nM; on IMP-1 (setting [7]), 1000 to 10000 nM.
The corresponding values for `O=C(CNC1=NCCN1)Nc1c(F)cc(S(=O)(=O)Nc2scnc2C(=O)O)cc1F` [Example 15, 5-[[4-[[2-(4,5-dihydro-1H-imidazol-2-ylamino)acetyl]amino]-3,5-difluoro-phenyl]sulfonylamino]thiazole-4-carboxylic acid] are 50 to 200 nM, 500 to 1000 nM and 1000 to 10000 nM.
`N=C(N)NCC(=O)Nc1ccc(S(=O)(=O)Nc2scnc2C(=O)O)cc1` [Example 20, 5-[[4-[(2-guanidinoacetyl)amino]phenyl]sulfonylamino]thiazole-4-carboxylic acid]: the Ki on NDM-1 (setting [1]) fell in the range of 100 to 300 nM; on NDM-1 (setting [5]), 50 to 200 nM; at VIM-1 (setting [2]) it was 150 to 300 nM; on VIM-1 (setting [6]) it was 200 to 500 nM.
As to `O=C(CC1=NCCN1)Nc1ccc(S(=O)(=O)Nc2scnc2C(=O)O)cc1F` [Example 21, 5-[[4-[[2-(4,5-dihydro-1H-imidazol-2-yl)acetyl]amino]-3-fluoro-phenyl]sulfonylamino]thiazole-4-carboxylic acid], the Ki at NDM-1 (setting [5]) is below 50 nM; on VIM-1 (setting [6]), 200 to 500 nM; on IMP-1 (setting [7]) it was 500 to 1000 nM.
Take `N=C(N)NNC(=O)Cc1ccc(S(=O)(=O)Nc2scnc2C(=O)O)cc1F` [Example 24, 5-[[4-[2-(2-carbamimidoylhydrazino)-2-oxo-ethyl]-3-fluoro-phenyl]sulfonylamino]thiazole-4-carboxylic acid]: the results for the Ki at NDM-1 (setting [5]), at VIM-1 (setting [6]) and at IMP-1 (setting [7]) were 50 to 200 nM, 500 to 1000 nM and 1000 to 10000 nM, respectively.
The corresponding values for `N=C(N)CNC(=O)Cc1ccc(S(=O)(=O)Nc2scnc2C(=O)O)cc1F` [Example 25, 5-[[4-[2-[(2-amino-2-imino-ethyl)amino]-2-oxo-ethyl]-3-fluoro-phenyl]sulfonylamino] thiazole-4-carboxylic acid] are 50 to 200 nM, 200 to 500 nM and 500 to 1000 nM.
For `N=C(NCC(=O)Nc1ccc(S(=O)(=O)Nc2scnc2C(=O)O)cc1F)N1CCOCC1` [Example 33, 5-[[3-fluoro-4-[[2-(morpholine-4-carboximidoylamino)acetyl]amino]phenyl]sulfonylamino]thiazole-4-carboxylic acid], the Ki at NDM-1 (setting [5]) was 200 to 2000 nM; at VIM-1 (setting [6]) it was 200 to 500 nM; at IMP-1 (setting [7]) it was 1000 to 10000 nM.
The corresponding values for `CC(C(=N)N)C(=O)Nc1ccc(S(=O)(=O)Nc2scnc2C(=O)O)cc1F` (stereo not drawn) [Example 37, 5-[[4-[(3-amino-3-imino-2-methyl-propanoyl)amino]-3-fluoro-phenyl]sulfonylamino]thiazole-4-carboxylic acid] are 200 to 2000 nM, below 200 nM and 1000 to 10000 nM.
Regarding `N=C1NCCN1CC(=O)Nc1ccc(S(=O)(=O)Nc2scnc2C(=O)O)cc1F` [Example 38, 5-[[3-fluoro-4-[[2-(2-iminoimidazolidin-1-yl)acetyl]amino]phenyl]sulfonylamino]thiazole-4-carboxylic acid], the Ki at NDM-1 (setting [5]) was 200 to 2000 nM; on VIM-1 (setting [6]) it was 200 to 500 nM; at IMP-1 (setting [7]), 1000 to 10000 nM.
In the same order, the values of `CNC(=N)NCC(=O)Nc1ccc(S(=O)(=O)Nc2scnc2C(=O)O)cc1F` [Example 40, 5-[[3-fluoro-4-[[2-[(N-methylcarbamimidoyl)amino]acetyl]amino]phenyl]sulfonylamino]thiazole-4-carboxylic acid] are 200 to 2000 nM, 200 to 500 nM and 1000 to 10000 nM.
The corresponding values for `N=C(N)NOCC(=O)Nc1ccc(S(=O)(=O)Nc2scnc2C(=O)O)cc1F` [Example 42, 5-[[3-fluoro-4-[(2-guanidinooxyacetyl)amino]phenyl]sulfonylamino]thiazole-4-carboxylic acid] are 200 to 2000 nM, 500 to 1000 nM and 1000 to 10000 nM.
In the same order, the values of `N=C(N)N/N=C/C(=O)Nc1ccc(S(=O)(=O)Nc2scnc2C(=O)O)cc1F` [Example 43, 5-[[4-[[(2E)-2-(carbamimidoylhydrazono)acetyl]amino]-3-fluoro-phenyl]sulfonylamino]thiazole-4-carboxylic acid] are 50 to 200 nM, 200 to 500 nM and below 500 nM.
